In patent US20250034165A1, “COMPOUND CONTAINING CYCLOALKYL OR HALOALKYL” (CHIA TAI TIANQING PHARMACEUTICAL GROUP CO., LTD., priority 2021, published 2025):

Legend:
[1] = test system: BAF3-EGFR (L858R/T790M/C797S) cells; test: Inhibition of proliferation of BAF3-EGFR (L858R/T790M/C797S) cells, CCK-8; type: cell-based; conditions: Ba/F3 EGFR, 72 h, read-out: BAF3(EGFR T790M L858R C797S) cell inhibitory activity IC50
In short: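 BaF3 EGFR L858R/T790M/C797S cells seeded at 1.5×10^5 cells/mL in RPMI + 10% FBS, 37 °C, compound added after overnight, duplicates. Viability by CCK-8; % inhibition vs untreated and blank, IC50 by four-parameter fit.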

[2] = molecular target: EGFR (d746-750 (d19)/T790M) (Homo sapiens (Human), UniProt P00533, DEL746-750/T790M); test: Inhibitory activity for EGFR (d746-750 (d19)/T790M) kinase; type: biochemical; conditions: ATP 5 μM
EGFR (d746-750 (d19)/T790M), sequence (P00533 other isoform, or with tags, fused parts or gaps T790M/del 1-668/del 746-750 limits assumed): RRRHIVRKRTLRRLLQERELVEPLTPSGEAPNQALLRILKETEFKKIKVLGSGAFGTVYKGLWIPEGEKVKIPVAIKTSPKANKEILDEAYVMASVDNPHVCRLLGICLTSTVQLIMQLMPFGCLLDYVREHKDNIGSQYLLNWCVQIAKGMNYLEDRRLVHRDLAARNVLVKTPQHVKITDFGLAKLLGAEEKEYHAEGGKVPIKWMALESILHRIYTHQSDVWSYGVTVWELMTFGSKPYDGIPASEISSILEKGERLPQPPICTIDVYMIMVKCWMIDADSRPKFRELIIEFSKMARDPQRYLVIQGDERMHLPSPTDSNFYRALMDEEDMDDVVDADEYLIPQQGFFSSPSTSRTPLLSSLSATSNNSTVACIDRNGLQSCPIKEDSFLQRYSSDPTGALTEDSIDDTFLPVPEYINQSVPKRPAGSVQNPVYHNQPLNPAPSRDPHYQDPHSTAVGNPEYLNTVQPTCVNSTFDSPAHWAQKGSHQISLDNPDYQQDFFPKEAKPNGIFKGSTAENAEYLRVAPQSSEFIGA
In short: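 Recombinant EGFR d746-750/T790M (0.003 ng/μL final) preincubated 30 min with compound (10 to 0.0024 nM, 4-fold steps), then 5 μM ATP and 0.1 μM ULight-poly GT added for 2 h at room temperature. EDTA stop, Eu-anti-phosphotyrosine TR-FRET read (665 nm); IC50 by four-parameter fit.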

[3] = test system: PC-9 EGFR-Del19-T790M-C797S cells; test: Inhibition of proliferation of PC-9-EGFR (Del19 T790M C797S) cells, CCK-8; type: cell-based; conditions: 72 h, read-out: PC-9-EGFR (Del19 T790M C797S) cell inhibitory activity IC50
In short: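 Cells seeded at 2×10^4 cells/mL were treated 72 h with compound at 1000 nM-0.06 nM final, in replicate wells. CCK-8 absorbance at 450 nm after 2 h gave inhibition rate relative to negative control and blank. IC50 from four-parameter fit against log concentration.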

[4] = In vitro stability in liver microsomes; type: in vitro ADME; conditions: Human liver microsome
Procedure: 300 μL of the final incubation system contains 30 μL of liver microsomes (protein concentration: 0.15 mg/mL), 30 μL of NADPH+MgCl2, 3 μL of the test compound (in acetonitrile), and 237 μL of PBS buffer (pH 7.4). The proportion of the organic solvent (acetonitrile) was 1%. Samples were prepared in duplicate of 0.3 mL for each species (e.g., human or mouse liver microsomes). Tubes each containing 270 μL of a mixed solution of substrate and enzyme […] were pre-incubated at 37° C. for 5 min. 30 μL of NADPH+MgCl2 was added and the mixture was mixed. 50 μL of the mixture was taken at 0 min, 15 min, 30 min, and 60 min, and 300 μL of glacial acetonitrile containing an internal standard was added to terminate the reaction.
50 μL of the incubated sample was added with 300 μL of glacial acetonitrile containing an internal standard (20 ng/mL diazepam) for precipitation. The mixture was vortexed for 5 min, and centrifuged (12,000 rpm, 4° C.) for 10 min. 75 μL of supernatant was taken and diluted with 75 μL of ultrapure water. After being homogeneously mixed, 0.5 μL of the resulting sample was injected for analysis.

[5] = molecular target: EGFR (d746-750/T790M/C797S) (Homo sapiens (Human), UniProt P00533, C797S/DEL746-750/T790M); test: Inhibitory activity for EGFR (d746-750/T790M/C797S) kinase; type: biochemical; conditions: ATP 5 μM; read-out: EGFR(d19/T790M/C797S) (IC50)
EGFR (d746-750/T790M/C797S), sequence (P00533 other isoform, or with tags, fused parts or gaps T790M/C797S/del 1-694/del 746-750 limits assumed): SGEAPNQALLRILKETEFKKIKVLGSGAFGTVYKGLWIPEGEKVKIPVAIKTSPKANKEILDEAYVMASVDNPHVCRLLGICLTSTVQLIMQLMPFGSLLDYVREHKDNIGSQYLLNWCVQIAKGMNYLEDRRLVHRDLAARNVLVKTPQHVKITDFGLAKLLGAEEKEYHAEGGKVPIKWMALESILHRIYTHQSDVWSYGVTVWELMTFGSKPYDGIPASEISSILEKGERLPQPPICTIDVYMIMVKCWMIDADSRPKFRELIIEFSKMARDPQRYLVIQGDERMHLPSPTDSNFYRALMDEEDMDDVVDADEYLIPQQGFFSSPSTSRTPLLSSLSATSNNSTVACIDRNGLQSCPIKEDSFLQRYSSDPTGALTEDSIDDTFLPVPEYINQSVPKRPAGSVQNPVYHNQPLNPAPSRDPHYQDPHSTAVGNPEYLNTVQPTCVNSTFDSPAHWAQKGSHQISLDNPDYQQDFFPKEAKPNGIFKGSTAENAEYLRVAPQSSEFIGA
In short: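 EGFR d746-750/T790M/C797S (0.03 ng/μL final) preincubated 30 min with compound (10 nM–0.0024 nM, 4-fold, 7 points). Reaction with 5 μM ATP and 0.1 μM ULight-poly GT, 2 h at room temperature; EDTA stop, Eu-anti-phosphotyrosine TR-FRET read at 665 nm, IC50 by four-parameter fit.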

NCI-H1975(L858R T790M) = test: Nude mouse subcutaneous xenograft tumor model of NCI-H1975 cells; type: in vivo, nude mice; conditions: once a day, 14 days
From the text: Evaluation on drug effect on nude mouse subcutaneous xenograft tumor model of NCI-H1975 cells: NCI-H1975 cells were inoculated subcutaneously in the right axilla of SPF-grade female nude mice (source: Jiangsu Huachuang Sino Pharmaceutical Technology Co., Ltd.) at 1×10^6 cells/mouse. When the mean tumor volume reached about 200 mm^3, the animals were grouped.
(§1) The day of grouping was defined as day 0, and intragastric administration was started on day 0 and performed once a day. The tumor volume was measured 2-3 times a week, meanwhile, the mice were weighed and the data were recorded; the general behavior of the mice was observed and recorded every day. After the experiment was completed, the tumors were removed, weighed, and photographed.
(§2) Tumor volume TV (mm^3)=½×(a×b^2),
(§3) Relative tumor volume RTV=TVt/TV0,
(§4) Relative tumor proliferation rate T/C (%)=(TRTV/CRTV)×100%,
(§5) Tumor growth inhibition rate TGI (%)=(1−TW/TW0)×100%;

[6] = test system: BAF3-EGFR (del19/T790M/C797S) cells; test: Inhibition of proliferation of BAF3-EGFR (Del19/T790M/C797S) cells, CCK-8; type: cell-based; conditions: Ba/F3 EGFR-Del19/T790M/C797S, 72 h, read-out: BAF3(EGFR T790M Del19 C797S) cell inhibitory activity IC50
In short: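 Cells seeded at 1.0×10^5 cells/mL in RPMI + 10% FBS, cultured overnight at 37° C, 5% CO2, then compound added in duplicate wells, with untreated cells as negative control. Inhibition rate calculated against negative-control and blank means. IC50 obtained from four-parameter fit of inhibition versus log concentration.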

[7] = In vivo pharmacokinetics in ICR mice; conditions: mouse, plasma, PO, 10 mg/kg intragastric
In short: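 ICR mice (18–20 g, 9 per group, fasted 12 h) received 10 mg/kg of compound intragastrically. Orbital blood was taken from 0 min to 24 h and EDTA-K2 plasma was prepared. Plasma was precipitated with acetonitrile containing diazepam as internal standard and analysed by LC/MS/MS.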

[8] = test system: PC9-EGFR (del19-T790M-C797S); test: Nude mouse subcutaneous xenograft tumor model of PC9-EGFR (del19-T790M-C797S) tumor mass; type: in vivo, nude mice
From the text: Evaluation on drug effect on nude mouse subcutaneous xenograft tumor model of PC9-EGFR (del19-T790M-C797S) tumor mass: PC9-EGFR (del19-T790M-C797S) cells were inoculated subcutaneously in the right axilla of SPF-grade female nude mice (source: Laboratory Animal Operation Department, Shanghai Institute for Biomedical and Pharmaceutical Technologies) at 1×10^7 cells/mouse for the F1 generation. The nude mouse tumor tissue of the F1 generation was taken out, and the necrotic tissue was removed. Then the rest of the tumor tissue was cut into tumor masses of about 1.5-2 mm and inoculated subcutaneously in the right axilla of the nude mice. When the mean tumor volume reached about 200 mm^3, the animals were grouped.
as §1, §2, §3, §4, §5

[9] = 15 mpk*4 + 10 mpk*25 (i.g), 29 days

SMILES	IC50 [1]	IC50 [2]	IC50 [3]	Stability in liver microsomes (residual %, T = 60 min) [4]	IC50 [5]	IC50 [6]	also measured
Cc1cc2cc(n1)-c1cnn(C)c1OCCC[C@@H](C1CC1)CN1/C(=N/C2=O)Nc2cc(NC3CCN(C)CC3)ccc21 [Example 10]	< 5 nM	0.014 nM	< 50 nM	94.30%	0.023 nM		
Cc1cc2cc(n1)-c1cnn(C)c1OCCC[C@@H](C1CC1)CN1/C(=N/C2=O)Nc2ccc(NC(=O)CCN(C)C)cc21 [Example 112]	< 5 nM		< 50 nM	71.24%	0.063 nM		
Cc1cc2cc(n1)-c1cnn(C)c1OCCC[C@@H](C1CC1)CN1/C(=N/C2=O)Nc2ccc(N(C)CCN(C)C)cc21 [Example 45]	< 5 nM	0.013 nM	< 50 nM		0.018 nM	< 1 nM	Tumor growth inhibition % (tumor weight, d 14) (NCI-H1975(L858R T790M); 10 mpk (i.g)): 76.2% (tumor; Tumor growth inhibition % (volume, d 12) (NCI-H1975(L858R T790M); 10 mpk (i.g)): 76.6%
Cc1cc2cc(n1)-c1cnn(C)c1OCCC[C@@H](C1CC1)CN1/C(=N/C2=O)Nc2ccc(N[C@H]3CC[C@@H](N(C)C)CC3)cc21 [Example 99]	< 5 nM	0.091 nM	< 50 nM	84.54%			
Cc1cc2cc(n1)-c1cnn(C)c1OCCC[C@@H](C1CC1)CN1/C(=N/C2=O)Nc2cc(NCCCN(C)C)ccc21 [Example 44]	< 5 nM	0.0081 nM	< 50 nM	80.24%	0.012 nM	< 1 nM	
Cc1cc2cc(n1)-c1cnn(C)c1OCCC[C@@H](C1CC1)CN1/C(=N/C2=O)Nc2cc(N[C@H]3CC[C@@H](N(C)C)C3)ccc21 [Example 131]	< 5 nM		< 50 nM	95.64%	0.08 nM		
Cc1cc2cc(n1)-c1cnn(C)c1OCCC[C@@H](C1CC1)CN1/C(=N/C2=O)Nc2ccc(N[C@@H](C)CN(C)C)cc21 [Example 66]	< 5 nM		< 50 nM			< 1 nM	AUC(0-inf) [7]: 2200 ng·h/mL; AUC(0-t) ([7]; read-out: AUC(0-t)): 2040 ng·h/mL; Cmax ([7]; read-out: Cmax): 143 ng/mL; MRT last ([7]; read-out: MRT(0-t)): 8.26 h; Tmax ([7]; read-out: Tmax): 6 h; half-life ([7]; read-out: T½ (converted)): 5.98 h; Tumor growth inhibition % (tumor weight, d 14) (NCI-H1975(L858R T790M); 5 mpk (i.g)): 73.5% (tumor; Tumor growth inhibition % (volume, d 12) (NCI-H1975(L858R T790M); 5 mpk (i.g)): 71.3%; Tumor growth inhibition % (tumor weight, d 14) (NCI-H1975(L858R T790M); 10 mpk (i.g)): 87.5% (tumor; Tumor growth inhibition % (volume, d 12) (NCI-H1975(L858R T790M); 10 mpk (i.g)): 86.2%; Tumor growth inhibition % (tumor weight, d 29) [8, 9]: 95.8% (tumor weight, d 29); Tumor growth inhibition % (volume, d 27) [8, 9]: 94.3% (volume, d 27); Tumor growth inhibition % (tumor weight, d 29) ([8]; 30 mpk*4 (i.g), 4 days): 56.5%; Tumor growth inhibition % (volume, d 27) ([8]; 30 mpk*4 (i.g), 4 days): 60.0% (volume, d 27)

The next lines start with results.

IC50 [1]	IC50 [2]	IC50 [3]	Stability in liver microsomes (residual %, T = 60 min) [4]	IC50 [5]	IC50 [6]	SMILES	also measured
< 5 nM	0.092 nM	< 50 nM	82.55%			Cc1cc2cc(n1)-c1cnn(C)c1OCCC[C@@H](C1CC1)CN1/C(=N/C2=O)Nc2ccc(N[C@H]3CC[C@H](N(C)C)CC3)cc21 [Example 100]	
< 5 nM		< 50 nM	63.76%	0.066 nM		Cc1cc2cc(n1)-c1cnn(C)c1OCCC[C@@H](C1CC1)CN1/C(=N/C2=O)Nc2ccc(N[C@H]3CC[C@@H](N(C)C)C3)cc21 [Example 132]	
< 5 nM	0.017 nM	< 50 nM	96.11%	0.027 nM	< 1 nM	Cc1cc2cc(n1)-c1cnn(C)c1OCCC[C@@H](C1CC1)CN1/C(=N/C2=O)Nc2cc(NC3CCN(C(C)C)CC3)ccc21 [Example 47]	
< 5 nM	0.011 nM		64.73%	0.013 nM	< 1 nM	Cc1cc2cc(n1)-c1cnn(C)c1OCCC[C@@H](C1CC1)CN1/C(=N/C2=O)Nc2cc(NCCN3CCCC3)ccc21 [Example 72]	
< 5 nM	0.017 nM	< 50 nM	95.68%	0.027 nM	< 1 nM	CCN1CCC(Nc2ccc3c(c2)N/C2=N\C(=O)c4cc(C)nc(c4)-c4cnn(C)c4OCCC[C@@H](C4CC4)CN23)CC1 [Example 48]	
